Data set [1] can be described thus: Solubility test: dissolution of crystalline form sample in water. The data set is classed as physicochemical. As to conditions: 25±5° C.; for dissolubility of samples (300 mg/mL): about 600 mg sample in water (2 mL), ultrasonic vibration, visual check for solute particles; for solubility in water (conclusion from Table 1): 300 mg/mL. How it is done:
About 600 mg of a crystalline form sample was added to water (2 mL). The dissolution of the sample was obtained with ultrasonic vibration at 25±5° C. No visible solute particles mean that the sample has a complete dissolution in water; whereas visible solute particles mean that the sample precipitates in water.

Data set [2] is described as follows: Stability test: impurity content by HPLC under storage conditions. The data set is classed as physicochemical. As to conditions: for stability under the experimental conditions (conclusion from Tables 2 and 3): high temperature, accelerated, mediated, high humidity and illumination conditions, up to 30 days. As for the experimental part: A crystalline form sample was put in a watch glass in the form of a thin layer of ≦5 mm. The stability test was conducted under different conditions: high temperature (60±2° C.) for 30 days, accelerated condition (40±2° C., 75%±5% humidity) for 30 days, mediated condition (30±2° C., 65%±5% humidity) for 30 days, high humidity (25±2° C., 90%±5%) for 10 days and illumination condition (visible light 4500 lx±500 lx with ultraviolet light not lower than 0.7 W·h/m^2, 25±2° C., 60%±5% relative humidity) for 10 days respectively. The impurity contents of crystalline forms B and C were determined at various time points (0, 10, 20, and 30 days) by high performance liquid chromatography (HPLC) with peak area normalization.

Setting [3] is: accelerated condition (40±2° C., 75%±5% humidity), 0 day.
Setting [4] is: accelerated condition (40±2° C., 75%±5% humidity), 10 days.
The mark [5] stands for this setting: accelerated condition (40±2° C., 75%±5% humidity), 20 days.
The mark [6] stands for this setting: accelerated condition (40±2° C., 75%±5% humidity), 30 days.
Setting [7] is: high humidity (25±2° C., 90%±5%), 0 day.
[8] abbreviates: high humidity (25±2° C., 90%±5%), 10 days.
Setting [9] is: high temperature (60±2° C.), 0 day.
The mark [10] stands for this setting: high temperature (60±2° C.), 10 days.
Setting [11] is: high temperature (60±2° C.), 20 days.
Where [12] appears, read: high temperature (60±2° C.), 30 days.
Where [13] appears, read: illumination condition (visible light 4500 lx±500 lx with UV, 25±2° C., 60%±5% relative humidity), 0 day.
The mark [14] stands for this setting: illumination condition (visible light 4500 lx±500 lx with UV, 25±2° C., 60%±5% relative humidity), 10 days.
[15] abbreviates: mediated condition (30±2° C., 65%±5% humidity), 0 day.
[16] abbreviates: mediated condition (30±2° C., 65%±5% humidity), 10 days.
Setting [17] is: mediated condition (30±2° C., 65%±5% humidity), 20 days.
[18] abbreviates: mediated condition (30±2° C., 65%±5% humidity), 30 days.

Structures can show the parent of a compound that is named as a salt.

With `CCOC(=O)C1=C(CN2CCOCC2)NC(c2nccs2)=NC1c1ccc(F)cc1Br` (single isomer, unassigned) [form B, 6[R,S]-ethyl 6-(2-bromo-4-fluorophenyl)-4-(morpholinomethyl)-2-(thiazol-2-yl)-1,6-dihydro pyrimidine-5-carboxylate mesylate], the “dissolubility of samples (300 mg/mL)” value in data set [1] is “completely dissolved, some sample precipitated”. Besides, in data set [1], the “solubility in water (conclusion from Table 1)” value was “good solubility in water”. Further, the “impurity content by HPLC” value in data set [2] (setting [3]) turned out to be 0.06%; in data set [2] (setting [4]) it was 0.09%; in data set [2] (setting [5]), 0.08%; in data set [2] (setting [6]), 0.10%; in data set [2] (setting [7]) it was 0.06%; in data set [2] (setting [8]) it was 0.06%. Moreover, the “impurity content by HPLC” value in data set [2] (setting [9]) came to 0.06%; in data set [2] (setting [10]), 0.13%; in data set [2] (setting [11]), 0.20%; in data set [2] (setting [12]) it was 0.24%; in data set [2] (setting [13]) it was 0.06%; in data set [2] (setting [14]), 0.12%. The “impurity content by HPLC” value in data set [2] (setting [15]) is 0.06%; in data set [2] (setting [16]), 0.10%; in data set [2] (setting [17]), 0.13%; in data set [2] (setting [18]), 0.12%. Besides, the “stability under the experimental conditions (conclusion from Tables 2 and 3)” value in data set [2] is listed as “did not degrade or change”.
With `CCOC(=O)C1=C(CN2CCOCC2)NC(c2nccs2)=NC1c1ccc(F)cc1Br` (single isomer, unassigned) [form C, 6[R,S]-ethyl 6-(2-bromo-4-fluorophenyl)-4-(morpholinomethyl)-2-(thiazol-2-yl)-1,6-dihydro pyrimidine-5-carboxylate mesylate], the “dissolubility of samples (300 mg/mL)” value in data set [1] is reported as “completely dissolved, no sample precipitated”. In addition, the “solubility in water (conclusion from Table 1)” value in data set [1] is given as “good solubility in water”. The “impurity content by HPLC” value was determined as 0.03% in data set [2] (setting [3]); 0.04% in data set [2] (setting [4]); 0.04% in data set [2] (setting [5]); 0.04% in data set [2] (setting [6]); 0.03% in data set [2] (setting [7]); 0.04% in data set [2] (setting [8]). In addition, the “impurity content by HPLC” value came to 0.03% in data set [2] (setting [9]); 0.06% in data set [2] (setting [10]); 0.03% in data set [2] (setting [11]); 0.03% in data set [2] (setting [12]); 0.03% in data set [2] (setting [13]); 0.03% in data set [2] (setting [14]). Further, the “impurity content by HPLC” value in data set [2] (setting [15]), in data set [2] (setting [16]), in data set [2] (setting [17]) and in data set [2] (setting [18]) was 0.03% each time. Besides, in data set [2], the “stability under the experimental conditions (conclusion from Tables 2 and 3)” value is reported as “did not degrade or change”.
